Here are results for 5 molecules from article PMC4686663, “Ultrahigh-throughput discovery of promiscuous enzymes by picodroplet functional metagenomics” (Nature Communications, 2015).

Structures can show the parent of a compound that is named as a salt. Where two headings read alike, the source gives them in different places. Some results are limits rather than exact numbers.

One data set has as its target T1, P40 (uncultured organism, UniProt A0A141FA90).
T1 construct: ORF p40 recloned in modified pRSFDuet (NcoI-XhoI), E. coli BL21(DE3); no tag stated
Briefly: sulfate transfer kinetics. In kind it is biochemical. Particulars: acceptor phenolate; ping-pong mechanism.

A further data set relates to T2, P85.
T2 construct: N-terminal Strep-tag, pASKIBA5plus (BsaI), E. coli BL21(DE3); Strep-Tactin and gel filtration
The data set is described as follows: 4-nitrophenolate release, […] nm, initial rates. In kind it is biochemical. Particulars: 100 mM MOPS-NaOH pH 8.0, 150 mM NaCl, 25 °C.

For the next data set, the target named is T3, P83 (uncultured organism, UniProt A0A141FA94).
T3 construct: N-terminal Strep-tag, pASKIBA5plus (BsaI), E. coli BL21(DE3); Strep-Tactin and gel filtration
Briefly: 4-nitrophenolate release, […] nm, initial rates. In kind it is biochemical. Particulars: 100 mM MOPS-NaOH pH 8.0, 150 mM NaCl, 25 °C.

The target of a further data set is P84 (uncultured organism, UniProt A0A141FA95). The data set is described as follows: 4-nitrophenolate release, […] nm, initial rates. The following applies: 100 mM MOPS-NaOH pH 8.0, 150 mM NaCl, 25 °C.
Chain of P84 (A0A141FA95 entry or part of it): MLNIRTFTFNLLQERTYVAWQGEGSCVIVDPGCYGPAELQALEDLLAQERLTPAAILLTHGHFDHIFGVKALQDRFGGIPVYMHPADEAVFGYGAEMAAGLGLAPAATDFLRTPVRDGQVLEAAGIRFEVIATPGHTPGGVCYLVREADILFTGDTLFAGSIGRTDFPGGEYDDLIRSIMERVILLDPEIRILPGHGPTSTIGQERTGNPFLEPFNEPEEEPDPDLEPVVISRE
In a further data set the target is T4, P86 (uncultured organism, UniProt A0A141FA97).
T4 construct: N-terminal Strep-tag, pASKIBA5plus (EcoRI-NcoI), E. coli BL21(DE3); Strep-Tactin and gel filtration
T4 sequence (A0A141FA97 entry or part of it): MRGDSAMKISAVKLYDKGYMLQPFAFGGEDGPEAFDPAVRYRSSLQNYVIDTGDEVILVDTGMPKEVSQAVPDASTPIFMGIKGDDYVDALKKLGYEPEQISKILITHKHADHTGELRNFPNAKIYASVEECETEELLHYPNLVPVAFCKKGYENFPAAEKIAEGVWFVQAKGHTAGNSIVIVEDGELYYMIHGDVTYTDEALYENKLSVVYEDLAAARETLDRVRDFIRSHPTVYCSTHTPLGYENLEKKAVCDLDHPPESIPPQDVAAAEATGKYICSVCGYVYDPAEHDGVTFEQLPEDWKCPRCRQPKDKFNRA
Briefly: 4-nitrophenolate release, […] nm, initial rates. In kind it is biochemical. Particulars: 100 mM MOPS-NaOH pH 8.0, 150 mM NaCl, 25 °C.

Substrate in data set [1]: O=C1CCc2ccccc2O1
Briefly: purified protein, by the assay type. Further details: Michaelis-Menten kinetics of substrate hydrolysis by purified enzyme, initial rates by absorbance or fluorescence, plate reader. On the procedure: (§1) All enzymatic assays were conducted at 25 °C in a final volume of 200 μl, in the activity buffer (100 mM MOPS-NaOH pH 8.0, containing 150 mM NaCl) that was used throughout the experiments, unless otherwise stated. Measurements were performed in 96-well plate format and product formation followed in SpectraMax M5 or 190 microplate readers. Hydrolysis of substrates with fluorescein leaving groups (1d and 2d) was monitored at the following wavelengths: λexcitation=488 nm and λemission=525 nm. A calibration curve (linearly fit to the equation: fluorescence=1.2 × 10^10 M^−1 [fluorescein]) was used to quantify fluorescein release. Hydrolysis of esters 1, 2a, 2b, 3, 4, 5, 6 and acetamide 9 was monitored by measuring absorbance of p-nitrophenolate at 400 nm (ɛ≈17,700 M^−1 cm^−1). Hydrolysis of thioester 7 was measured in the presence of the indicator 5,5'-dithiobis-(2-nitrobenzoic acid) (500 μM); the increase of 2-nitro-5-thiobenzoate was monitored at 412 nm (ɛ≈13,100 M^−1 cm^−1)[39]. Hydrolysis of lactones 8b, 8c, 8d1, 8d2 was measured using a pH-shift assay in 2.5 mM Bicine, 200 mM NaCl, 0.3 mM cresol purple pH 8.3 (ref. [65]). The pH drop was monitored by the decrease in the absorbance of the indicator dye cresol purple at 577 nm (ɛ≈4,000 M^−1 cm^−1). Hydrolysis of lactone 8a was measured at 270 nm in an ultraviolet-transparent 96-well plate. Hydrolysis of β-lactam 10 was measured at 405 nm in phosphate buffer (100 mM, pH 8.0). All kinetic parameters were calculated by fitting initial rates vo to the Michaelis–Menten equations (or, if saturation could not be reached due to solubility limits, to linear correlations) using Kaleidagraph. Example data and details of equations used for fitting are shown in Supplementary Fig. 14. (b) PTE hits. Applying the screening workflow to PTEs (using triester 2d as substrate) led to the isolation of eight unique and novel sequences, mostly originating from unknown microorganisms (Supplementary Table 2). Only one of these genes (p83) was predicted as a potential PTE by Pfam domain recognition (Fig. 3). […]

Substrate in data set [2]: CC(=O)Oc1ccc([N+](=O)[O-])cc1
The data set is described as follows: purified protein, by the assay type. Set-up: Michaelis-Menten kinetics of substrate hydrolysis by purified enzyme, initial rates by absorbance or fluorescence, plate reader. Particulars: 25.0 °C. The method, then: as §1

T1 sequence (A0A141FA90 entry or part of it): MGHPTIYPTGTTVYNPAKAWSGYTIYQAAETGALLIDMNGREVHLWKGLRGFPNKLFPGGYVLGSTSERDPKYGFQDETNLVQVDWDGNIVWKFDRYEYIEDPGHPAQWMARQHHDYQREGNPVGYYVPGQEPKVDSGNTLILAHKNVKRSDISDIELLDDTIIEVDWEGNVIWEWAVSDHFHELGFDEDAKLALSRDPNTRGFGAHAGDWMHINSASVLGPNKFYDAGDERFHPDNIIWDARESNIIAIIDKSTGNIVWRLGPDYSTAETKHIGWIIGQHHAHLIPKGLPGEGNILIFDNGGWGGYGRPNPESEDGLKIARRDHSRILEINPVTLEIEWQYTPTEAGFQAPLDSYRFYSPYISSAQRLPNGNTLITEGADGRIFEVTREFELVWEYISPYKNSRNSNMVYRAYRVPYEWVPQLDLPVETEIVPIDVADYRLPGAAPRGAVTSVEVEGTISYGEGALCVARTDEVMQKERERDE

Consider `O=[N+]([O-])c1ccc(OS(=O)(=O)O)cc1` [1a, sulfate ester 1a], for which the sulfate transfer kinetics entry at P40 is “P40 was shown to catalyse sulfate transfer from sulfate ester 1a to phenolate”.

For orientation: Km means the substrate concentration at which the rate is half of its maximum. Turning to `CCOP(=O)(OCC)Oc1ccc([N+](=O)[O-])cc1` [2a, paraoxon], the Km in the data set on P85, on P83, on P84 and at P86 was over 5 mM each time.

B1: P91 (uncultured organism) (protein)
chain: MTARKVDYTDGATRCIGEFHWDEGKSGPRPGVVVFPEAFGLNDHAKERARRLADLGFAALAADMHGDAQVFDAASLSSTIQGYYGDRAHWRRRAQAALDALTAQPEVDGSKVAAIGFCFGGATCLELARTGAPLTAIVTFHGGLLPEMAGDAGRIQSSVLVCHGADDPLVQDETMKAVMDEFRRDKVDWQVLYLGNAVHSFTDPLAGSHGIPGLAYDATAEARSWTAMCNLFSELFG
notes: N-terminal Strep-tag, pASKIBA5plus (BsaI), E. coli BL21(DE3); Strep-Tactin and gel filtration
As to B1, in data set [1] (25.0 °C), the Km worked out at 7.7 ± 2.5 mM.

B2: P88.2 (uncultured organism) (protein)
chain: MNLTETLPGDELANAMAARGYPAVEPATTRDRGVGPFRRLVLRGARILDGTGAPPVGPYDIVVEGGRIKEVVLVGVPKMPIKPERRPAPGDHEIDCTGKLVTPGFVDAHVHIGTYYHAPSGPMPSADYVYKLWLAHGITTVREMACMNGVGWTLEQKEAAAANRIAAPKIVAHAYFPAVDEFIKTIYTVEQARKWVRAVKERGVDGLKFFGAPPAIMQAALEEANKLGMRSGCHHAQMSVSKVNALRSAQWGLTSTEHFYGIPEAMFIDRAVQAYPVGYDFMDESLRYNSSSQNFIQAAEPGSAKWQETLEKFLELGHSFVPTLAILEANRDLMRARRADWHDEYTHKTLWTYFQPHRGGHCSHWYRWTTTNEVQWKEHFRRWMRFCNDYKNLGGRVCPGSDAGFTFQLYGFCFIRELEQMQEAGFHPLEIFRAATSESAALLGVDHETGTIEPGKCADLLVHRYDPLDDLKYLYGTGAWRLNDETGKTEWHRGIEYTIKDGVIYDPAELLADVRAIVAESFNEGEDTRPRTRR
notes: N-terminal Strep-tag, pASKIBA5plus (EcoRI-NcoI), E. coli BL21(DE3); Strep-Tactin and gel filtration
On to B2, for which the Km in data set [2] turned out to be 2.9 ± 1.2 mM.

B3: P83 (uncultured organism) (protein)
chain: MQINSVLGPVDTADLGFTLIHEHLLIGWAGWQWDSRWEFDRANAMAKAVDLLQELKALGVSTFVDPCPMDIGRDPEFLAEASQRSGMTIIASTGLYHSEMGIPSYFHAMPEEEIAEIFIHDLTEGMGHTGIKAGIIKCATTAGHVTEQEQKTHGAAARAQVATGAPIITHTDENGPMGLAQLDIFESRGASVSKIAIGHSCGNGDIRYLLSVLERGAWLSFDRFGFGLSASDDVRVASLLGLIGLGYADRLMISHDSVSTFLAKPGGWDPAQEPSLANWKPTHIIQNIIPRLKNAGVSQEVIDTITIDNPRRYFEGSAASGNK
notes: as for B1
With B3, in data set [1], the Km was 2.5 ± 0.4 mM.
